Experimental data: publication PMC3265452 (PLoS Neglected Tropical Diseases, 2012)
Where a name gives a salt, the structure may show the parent alone. Read-outs that look alike come from different tables or passages of the source.

Target: AaDOP2 (Aedes aegypti, UniProt H6D5H2)
Test: AaDOP2 antagonist screen of the LOPAC1280 library (HEK-CRELuc-Aadop2 cells, luminescence)
Format: cell-based
[1] = 10 µM compound, 300 nM dopamine, 2 hr, hit = compound effect <20

Sequence of AaDOP2 (H6D5H2 1-476): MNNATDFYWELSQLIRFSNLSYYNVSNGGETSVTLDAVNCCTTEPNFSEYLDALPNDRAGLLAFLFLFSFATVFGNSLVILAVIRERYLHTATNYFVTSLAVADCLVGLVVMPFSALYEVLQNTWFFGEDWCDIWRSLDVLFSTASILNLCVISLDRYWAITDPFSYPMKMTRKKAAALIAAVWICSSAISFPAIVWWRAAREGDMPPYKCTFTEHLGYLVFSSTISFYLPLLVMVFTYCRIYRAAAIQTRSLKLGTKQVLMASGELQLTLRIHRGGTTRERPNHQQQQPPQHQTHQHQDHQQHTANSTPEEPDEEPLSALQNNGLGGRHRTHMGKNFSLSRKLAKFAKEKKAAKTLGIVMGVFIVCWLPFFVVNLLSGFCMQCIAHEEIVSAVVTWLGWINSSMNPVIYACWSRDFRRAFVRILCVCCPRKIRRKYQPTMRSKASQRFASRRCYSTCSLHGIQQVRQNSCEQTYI

Compound	Compound effect (percent receptor signaling in presence of test compound, relative lux units relative to the SCH23390 control) [1]	Compound effect (percent receptor signaling in presence of test compound, relative lux units relative to the SCH23390 control)	other results
COC(=O)C(N)Cc1ccc(Cl)cc1.Cl (racemic) [Compound 248, DL-p-Chlorophenylalanine methyl ester hydrochloride]	71%		
NC(Cc1ccc(Cl)cc1)C(=O)O (racemic) [Compound 285, (±)-p-Chlorophenylalanine]	62%		
NC1CONC1=O (racemic) [Compound 291, DL-Cycloserine]	94%		
O=C(O)C1CN(CCCP(=O)(O)O)CCN1 (racemic) [Compound 329, (±)-CPP]		91	
CC(C)(C)NCC(O)COc1cccc2[nH]c(=O)[nH]c12.Cl (racemic) [Compound 334, (±)-CGP-12177A hydrochloride]	97%		
Br.C=CCN1CCc2c(cc(O)c(O)c2Cl)C(c2ccccc2)C1 (racemic) [Compound 336, (±)-Chloro-APB hydrobromide]	77%		
Oc1cc2c(cc1O)[C@H]1c3ccccc3CN[C@@H]1CC2 (racemic) [Compound 398, Dihydrexidine hydrochloride]		110	
CCCCCCCCCCCCCCC[C@H](O)[C@H](N)CO (racemic) [Compound 406, DL-erythro-Dihydrosphingosine]	88%		
Cl.Oc1cc2c(cc1O)C(c1ccccc1)CNCC2 (racemic) [Compound 444, (±)-SKF-38393 hydrochloride]		101	
COc1cc(CC(C)N)c(OC)cc1I.Cl (racemic) [Compound 447, (±)-DOI hydrochloride]		86	
CC(N)c1cccc(Cl)c1Cl.Cl (racemic) [Compound 448, (±)-2,3-Dichloro-alpha-methylbenzylamine hydrochloride]		84	
Cl.NCCCC(N)(C(=O)O)C(F)F (racemic) [Compound 467, DL-alpha-Difluoromethylornithine hydrochloride]	94%		
CCCCCCCCCCCCCCCC(=O)NCC(COP(=O)([O-])OCC[N+](C)(C)C)OCC (racemic) [Compound 488, rac-2-Ethoxy-3-hexadecanamido-1-propylphosphocholine]		42	
CCCCCCCCCCCCCCCCCC(=O)NCC(COP(=O)([O-])OCC[N+](C)(C)C)OCC (racemic) [Compound 489, rac-2-Ethoxy-3-octadecanamido-1-propylphosphocholine]		65	
Br.Cc1o[nH]c(=O)c1CC(N)C(=O)O (racemic) [Compound 563, (±)-AMPA hydrobromide]	101%		
COc1cc(C(O)C(=O)O)ccc1O (racemic) [Compound 573, (±)-Vanillylmandelic acid]		115	
NC(Cc1cc(O)c(O)cc1O)C(=O)O (racemic) [Compound 584, 6-Hydroxy-DL-DOPA]		101	
NC(C(=O)O)C(O)C(=O)O (racemic) [Compound 585, DL-threo-beta-hydroxyaspartic acid]	118%		
Br.CCCN(CCC)C1CCc2cccc(O)c2C1 (racemic) [Compound 602, (±)-8-Hydroxy-DPAT hydrobromide]	102%		
Br.CCCN(CCC)C1CCc2ccc(O)cc2C1 (racemic) [Compound 606, (±)-7-Hydroxy-DPAT hydrobromide]	62%		
N[C@H](C(=O)O)c1cc(O)no1 (racemic) [Compound 642, (±)-Ibotenic acid]		105	
CC(C)Cc1ccc(C(C)C(=O)O)cc1 (racemic) [Compound 646, (±)-Ibuprofen]		98	
COC(=O)C(C)(N)Cc1ccc(O)cc1.Cl (racemic) [Compound 759, alpha-Methyl-DL-tyrosine methyl ester hydrochloride]		101	
CC(N)(C(=O)O)c1ccc(C(=O)O)cc1 (racemic) [Compound 771, (±)-alpha-Methyl-4-carboxyphenylglycine]	108%		

Compound	Compound effect (percent receptor signaling in presence of test compound, relative lux units relative to the SCH23390 control) [1]	Compound effect (percent receptor signaling in presence of test compound, relative lux units relative to the SCH23390 control)	other results
COCCc1ccc(OCC(O)CNC(C)C)cc1.COCCc1ccc(OCC(O)CNC(C)C)cc1.O=C(O)C(O)C(O)C(=O)O (racemic) [Compound 777, (±)-Metoprolol (+)-tartrate]		98	
COc1ccc(CCN(C)CCCC(C#N)(c2cc(OC)c(OC)c(OC)c2)C(C)C)cc1OC.Cl (racemic) [Compound 782, (±)-Methoxyverapamil hydrochloride]	88%		
CC(N)(Cc1ccc(O)c(O)c1)C(=O)O (racemic) [Compound 797, (±)-3-(3,4-dihydroxyphenyl)-2-methyl-DL-alanine]	99%		
C[C@@H]1O[C@H](C[N+](C)(C)C)C[C@H]1O.[Cl-] (racemic) [Compound 814, (±)-Muscarine chloride]		104	
COc1cc(C(O)CN)ccc1O.Cl (racemic) [Compound 862, (±)-Normetanephrine hydrochloride]		81	
NCC(O)c1ccc(O)cc1 (racemic) [Compound 894, (±)-Octopamine hydrochloride, reference compound]		104	
CN1CCN(C2Cc3ccccc3Sc3ccc(Cl)cc32)CC1.O=C(O)/C=C\C(=O)O (racemic) [Compound 913, (±)-Octoclothepin maleate]		3	% of the SCH23390 effect (percent inhibition of receptor response relative to the SCH23390 control): 97%
CC(C)NCC(O)COc1cccc2ccccc12.Cl (racemic) [Compound 922, (±)-Propranolol hydrochloride]		102	
CCCCCCCCCCCCCCCC(=O)OC(CC(=O)O)C[N+](C)(C)C.[Cl-] (racemic) [Compound 943, Palmitoyl-DL-Carnitine chloride]		59	
CCCCCCCCCC(=O)NC(CN1CCOCC1)[C@H](O)c1ccccc1.Cl (mixture of isomers) [Compound 968, (±)-threo-1-Phenyl-2-decanoylamino-3-morpholino-1-propanol hydrochloride]	85%		
O=C(O)[C@H]1CCCN[C@H]1C(=O)O (racemic) [Compound 985, (±)-cis-Piperidine-2,3-dicarboxylic acid]		108	
CCCN(CCc1ccccc1)C1CCc2c(O)cccc2C1.Cl (racemic) [Compound 1005, (±)-PPHT hydrochloride]	73%		
CCN1CCC[C@H]1CNC(=O)c1c(O)c(Cl)cc(Cl)c1OC.O=C(O)C(O)C(O)C(=O)O (racemic) [Compound 1069, S(+)-Raclopride L-tartrate]	76%		
CC(C)NCC(O)c1ccc(NS(C)(=O)=O)cc1.Cl (racemic) [Compound 1074, (±)-Sotalol hydrochloride]	125%		
CNCC(O)c1ccc(O)cc1 (racemic) [Compound 1077, (±)-Synephrine]		88	
CCCCCCCCCCCCCCCCCC(=O)OC(CC(=O)O)C[N+](C)(C)C.[Cl-] (racemic) [Compound 1088, DL-Stearoylcarnitine chloride]		101	
CCN1CCCC1CNC(=O)c1cc(S(N)(=O)=O)ccc1OC (racemic) [Compound 1113, (±)-Sulpiride]	114%		
Br.Oc1cc2c(c(Cl)c1O)CCNCC2c1ccccc1 (racemic) [Compound 1133, (±)-6-Chloro-PB hydrobromide]	99%		
Br.C=CCN1CCc2cc(O)c(O)cc2C(c2ccccc2)C1 (racemic) [Compound 1139, (±)-SKF 38393, N-allyl-, hydrobromide]		70	
O=C1c2c(O)cc(O)cc2O[C@H](c2ccc(O)c(O)c2)[C@H]1O (racemic) [Compound 1176, (±)-Taxifolin]		102	
O=C(O)CCCCC1CCSS1 (racemic) [Compound 1185, (±)-alpha-Lipoic Acid]		111	
O=C(O)CNC(=O)C(CS)Cc1ccccc1 (racemic) [Compound 1186, DL-Thiorphan]		107	
O=C1CCC(N2C(=O)c3ccccc3C2=O)C(=O)N1 (racemic) [Compound 1227, (±)-Thalidomide]	107%		
